The NIST ThermoML archive (doi:10.1021/je100220c)
Numbers after ± are expanded uncertainties.

Assay: excess molar enthalpy (molar enthalpy of mixing); xn = mol fraction of the nth substance listed
Conditions: Liquid, Flow calorimetry

CC(C)=O [acetone] + O=C=O
excess molar enthalpy [kcal/mol]
Conditions | 313.15 K | 323.15 K | 333.15 K
9000 kPa, x2 = 0.095 | -0.109 ± 0.00359 | – | –
9000 kPa, x2 = 0.102 | – | -0.174 ± 0.00526 | -0.18 ± 0.00526
9000 kPa, x2 = 0.158 | – | -0.262 ± 0.00645 | –
9000 kPa, x2 = 0.18 | -0.223 ± 0.0055 | – | -0.313 ± 0.00765
9000 kPa, x2 = 0.246 | -0.287 ± 0.00645 | -0.406 ± 0.00932 | -0.424 ± 0.00956
9000 kPa, x2 = 0.319 | – | -0.512 ± 0.0112 | –
9000 kPa, x2 = 0.337 | -0.357 ± 0.00789 | – | -0.571 ± 0.0127
9000 kPa, x2 = 0.424 | – | -0.643 ± 0.0141 | -0.702 ± 0.0153
9000 kPa, x2 = 0.432 | -0.446 ± 0.0098 | – | –
9000 kPa, x2 = 0.507 | -0.484 ± 0.0105 | -0.749 ± 0.0163 | -0.8 ± 0.0172
9000 kPa, x2 = 0.586 | -0.532 ± 0.0115 | -0.834 ± 0.0179 | –
9000 kPa, x2 = 0.625 | – | – | -0.958 ± 0.0206
9000 kPa, x2 = 0.662 | -0.547 ± 0.0117 | – | –
9000 kPa, x2 = 0.699 | – | -0.957 ± 0.0208 | -1.02 ± 0.0217
9000 kPa, x2 = 0.771 | -0.565 ± 0.0122 | -0.998 ± 0.0215 | -1.04 ± 0.0222
9000 kPa, x2 = 0.805 | – | -0.998 ± 0.0215 | –
9000 kPa, x2 = 0.807 | – | – | -1 ± 0.0232
9000 kPa, x2 = 0.84 | -0.534 ± 0.0117 | -0.968 ± 0.0208 | –
9000 kPa, x2 = 0.9 | -0.487 ± 0.0108 | – | –
9000 kPa, x2 = 0.906 | – | -0.821 ± 0.0194 | -0.485 ± 0.0151
9000 kPa, x2 = 0.938 | -0.415 ± 0.0108 | -0.624 ± 0.022 | -0.289 ± 0.0139
9000 kPa, x2 = 0.969 | -0.287 ± 0.0103 | -0.271 ± 0.0234 | –
12000 kPa, x2 = 0.108 | -0.0772 ± 0.00215 | -0.0963 ± 0.00239 | –
12000 kPa, x2 = 0.189 | -0.137 ± 0.00335 | – | –
12000 kPa, x2 = 0.209 | – | -0.182 ± 0.0043 | –
12000 kPa, x2 = 0.258 | -0.175 ± 0.00406 | – | –
12000 kPa, x2 = 0.305 | – | -0.254 ± 0.00574 | –
12000 kPa, x2 = 0.332 | -0.22 ± 0.00502 | – | –
12000 kPa, x2 = 0.351 | – | -0.29 ± 0.00645 | –
12000 kPa, x2 = 0.395 | -0.251 ± 0.0055 | – | –
12000 kPa, x2 = 0.438 | – | -0.352 ± 0.00765 | –
12000 kPa, x2 = 0.464 | -0.279 ± 0.00598 | – | –
12000 kPa, x2 = 0.562 | -0.307 ± 0.012 | -0.403 ± 0.00884 | –
12000 kPa, x2 = 0.646 | – | -0.423 ± 0.00908 | –
12000 kPa, x2 = 0.675 | -0.316 ± 0.00693 | – | –
12000 kPa, x2 = 0.747 | – | -0.429 ± 0.00956 | –
12000 kPa, x2 = 0.781 | -0.287 ± 0.00621 | – | –
12000 kPa, x2 = 0.801 | – | -0.411 ± 0.00932 | –
12000 kPa, x2 = 0.847 | -0.245 ± 0.00574 | – | –
12000 kPa, x2 = 0.879 | – | -0.332 ± 0.00789 | –
12000 kPa, x2 = 0.911 | -0.176 ± 0.00502 | – | –
12000 kPa, x2 = 0.941 | – | -0.223 ± 0.00598 | –
12000 kPa, x2 = 0.971 | -0.0612 ± 0.00215 | -0.132 ± 0.0055 | –
15000 kPa, x2 = 0.111 | -0.0662 ± 0.00167 | -0.0736 ± 0.00191 | -0.0887 ± 0.00239
15000 kPa, x2 = 0.194 | -0.109 ± 0.00263 | -0.127 ± 0.00311 | –
15000 kPa, x2 = 0.215 | – | – | -0.162 ± 0.00382
15000 kPa, x2 = 0.264 | -0.148 ± 0.00335 | -0.171 ± 0.00382 | –
15000 kPa, x2 = 0.312 | – | – | -0.225 ± 0.00502
15000 kPa, x2 = 0.34 | -0.182 ± 0.00406 | – | –
15000 kPa, x2 = 0.359 | – | -0.216 ± 0.00478 | –
15000 kPa, x2 = 0.404 | – | – | -0.285 ± 0.00645
15000 kPa, x2 = 0.456 | -0.217 ± 0.00478 | – | –
15000 kPa, x2 = 0.473 | – | -0.267 ± 0.00574 | –
15000 kPa, x2 = 0.489 | – | – | -0.326 ± 0.00717
15000 kPa, x2 = 0.53 | -0.239 ± 0.00526 | -0.283 ± 0.00621 | –
15000 kPa, x2 = 0.586 | -0.244 ± 0.00526 | – | –
15000 kPa, x2 = 0.609 | – | -0.297 ± 0.00645 | -0.364 ± 0.00813
15000 kPa, x2 = 0.647 | -0.244 ± 0.00526 | – | –
15000 kPa, x2 = 0.683 | – | -0.296 ± 0.00645 | -0.372 ± 0.00837
15000 kPa, x2 = 0.719 | -0.234 ± 0.00502 | – | –
15000 kPa, x2 = 0.753 | – | – | -0.36 ± 0.00813
15000 kPa, x2 = 0.787 | -0.212 ± 0.00478 | -0.268 ± 0.00574 | –
15000 kPa, x2 = 0.82 | – | – | -0.31 ± 0.00717
15000 kPa, x2 = 0.852 | -0.173 ± 0.00406 | -0.223 ± 0.00502 | –
15000 kPa, x2 = 0.883 | – | – | -0.248 ± 0.00574
15000 kPa, x2 = 0.913 | -0.119 ± 0.00311 | -0.156 ± 0.00382 | –
15000 kPa, x2 = 0.915 | – | – | -0.202 ± 0.0055
15000 kPa, x2 = 0.943 | -0.087 ± 0.00311 | -0.117 ± 0.00406 | -0.156 ± 0.0055
15000 kPa, x2 = 0.972 | -0.0457 ± 0.00311 | -0.0633 ± 0.00335 | -0.0817 ± 0.0055
18000 kPa, x2 = 0.114 | -0.0631 ± 0.00167 | -0.0648 ± 0.00191 | –
18000 kPa, x2 = 0.198 | -0.0997 ± 0.00239 | – | –
18000 kPa, x2 = 0.219 | – | -0.124 ± 0.00287 | –
18000 kPa, x2 = 0.269 | -0.129 ± 0.00287 | – | –
18000 kPa, x2 = 0.318 | – | -0.174 ± 0.00382 | –
18000 kPa, x2 = 0.346 | -0.161 ± 0.00359 | – | –
18000 kPa, x2 = 0.41 | -0.187 ± 0.00406 | -0.211 ± 0.00454 | –
18000 kPa, x2 = 0.479 | -0.202 ± 0.0043 | -0.233 ± 0.00502 | –
18000 kPa, x2 = 0.577 | -0.215 ± 0.00454 | -0.248 ± 0.00526 | –
18000 kPa, x2 = 0.652 | -0.22 ± 0.00478 | -0.245 ± 0.00526 | –
18000 kPa, x2 = 0.724 | -0.205 ± 0.00454 | -0.231 ± 0.00502 | –
18000 kPa, x2 = 0.791 | -0.173 ± 0.00382 | -0.205 ± 0.00454 | –
18000 kPa, x2 = 0.855 | -0.136 ± 0.00335 | -0.167 ± 0.00382 | –
18000 kPa, x2 = 0.915 | -0.0915 ± 0.00263 | -0.108 ± 0.00311 | –
18000 kPa, x2 = 0.944 | – | -0.0774 ± 0.00287 | –
18000 kPa, x2 = 0.956 | -0.0521 ± 0.00215 | – | –
18000 kPa, x2 = 0.973 | – | -0.0445 ± 0.00239 | –
